Source: US7999132B2, “Anthranilic acid derivative or salt thereof” (Toyama Chemical Co., Ltd., priority 2004, dated 2011)
Structures can show the parent of a compound that is named as a salt.

System: MMP-13
Experiment: MMP-13 Production Inhibition Test
Format: cell-based, human
Conditions: Homo sapiens; 30 μmol/L; SW1353 cells stimulated with IL-1β 10 ng/mL; MMP-13 in culture supernatant by ELISA 16 hours after stimulation; read-out: Inhibition rate (%) at 30 μmol/L
Protocol: MMP-13 Production Inhibition Test
6.8×10^3 human cartilage derived cell line SW1353 cells were suspended in 100 μL of Dulbecco modified Eagle's medium supplemented with 10% fetal calf serum, plated on 96-well plates and cultured for 3 days. After the culture medium was changed to Dulbecco modified Eagle's medium containing 0.2% lactalbumin hydrolysate and the cells were cultured for 6 hours, […] were added and then IL-1β was added to obtain the final concentration of 10 ng/mL 1 hour later. 16 hours after the stimulation, supernatant was collected and the amount of MMP-13 in the culture supernatant was determined with an ELISA kit (Amersham). The inhibition rate was calculated from the amount of MMP-13 in the presence of a test compound assuming that the amount of MMP-13 was 100% in the absence of the test compound.

Structure (SMILES)	inhibition at 30 µM
O=C(Nc1cc(Oc2ccccc2)ccc1C(=O)O)c1ccc(N2CCOCC2)nc1 [Example 330, 2-(6-Morpholinopyridine-3-carboxamido)-4-phenoxybenzoic acid]	68%
O=C(Nc1cc(CCc2ccccc2)ccc1C(=O)O)c1ccc(N2CCCCC2)nc1 [Example 525, 4-phenethyl-2-(6-(piperidin-1-yl)pyridine-3-carboxamido)benzoic acid]	87%
Cc1cccc(C(=O)Nc2cc(Oc3ccccc3)ccc2C(=O)O)c1 [Example 325, 2-(3-Methylbenzamido)-4-phenoxybenzoic acid]	91%
O=C(Nc1cc(Oc2ccccc2)ccc1C(=O)O)c1nc2ccccc2s1 [Example 97, 2-(Benzothiazole-2-carboxamido)-4-phenoxybenzoic acid]	97%
O=C(Nc1cc(-c2ccccc2)ccc1C(=O)O)c1ccc(Cl)cc1 [Example 316, 2-(4-Chlorobenzamido)-4-phenylbenzoic acid]	96%
O=C(Nc1cc(-c2cc3ccccc3o2)ccc1C(=O)O)c1ccccc1 [Example 8, 2-(benzamido)-4-(benzofuran-2-yl)benzoic acid]	95%
O=C(Nc1cc(Oc2ccccc2)ccc1C(=O)O)c1ccc2occc2c1 [Example 96, 2-(Benzofuran-5-carboxamido)-4-phenoxybenzoic acid]	96%
O=C(Nc1cc(Oc2ccc(F)cc2)ccc1C(=O)O)c1ccccc1 [Example 560, 2-(Benzamido)-4-(4-fluorophenoxy)benzoic acid]	85%
O=C(Nc1cc(CCc2ccccc2)ccc1C(=O)O)c1cncc(-n2cccc2)c1 [Example 276, 4-Phenethyl-2-(5-(1H-pyrrol-1-yl)pyridine-3-carboxamido)benzoic acid]	86%
O=C(Nc1cc(Oc2ccc(C(F)(F)F)cc2)ccc1C(=O)O)c1ccccc1 [Example 570, 2-(Benzamido)-4-(4-(trifluoromethyl)phenoxy)benzoic acid]	98%
CC(=O)c1cccc(C(=O)Nc2cc(Oc3ccccc3)ccc2C(=O)O)c1 [Example 505, 2-(3-Acetylbenzamido)-4-phenoxybenzoic acid]	82%
O=C(Nc1cc(/C=C/c2cccc(Cl)c2)ccc1C(=O)O)c1ccccc1 [Example 134, 2-(Benzamido)-4-((E)-2-(3-chlorophenyl)vinyl)benzoic acid]	99%
O=C(Nc1cc(-c2cccc(Cl)c2)ccc1C(=O)O)c1ccc(O)cc1 [Example 196, 4-(3-chlorophenyl)-2-(4-hydroxybenzamido)benzoic acid]	97%
O=C(Nc1cc(OC2CCCCC2)ccc1C(=O)O)c1ccccc1 [Example 105, 2-(benzamido)-4-(cyclohexyloxy)benzoic acid]	64%
COc1ccc(-c2ccc(C(=O)O)c(NC(=O)c3ccccc3)c2)cc1Cl [Example 423, 2-(Benzamido)-4-(3-chloro-4-methoxyphenyl)benzoic acid]	98%
O=C(Nc1cc(CCc2ccccc2)ccc1C(=O)O)c1ccc(Cl)c(Cl)c1 [Example 431, 2-(3,4-Dichlorobenzamido)-4-phenethylbenzoic acid]	98%
O=C(Nc1cc(-c2ccccc2)ccc1C(=O)O)c1cccc(-c2ccccc2)c1 [Example 512, 2-(Biphenyl-3-carboxamido)-4-phenylbenzoic acid]	99%
O=C(O)c1ccc(-c2ccccc2)cc1NC(=O)c1ccc(C(F)(F)F)cc1C(F)(F)F [Example 318, 4-Phenyl-2-(2,4-bis(trifluoromethyl)benzamido)benzoic acid]	95%
O=C(Nc1cc(CCc2ccccc2)ccc1C(=O)O)c1ccc(C(F)(F)F)cc1 [Example 264, 4-Phenethyl-2-(4-(trifluoromethyl)benzamido)benzoic acid]	94%
COc1ccc(-c2ccc(C(=O)O)c(NC(=O)c3ccccc3)c2)cc1OC [Example 411, 2-(Benzamido)-4-(3,4-dimethoxyphenyl)benzoic acid]	81%
O=C(Nc1cc(-c2ccccc2)ccc1C(=O)O)c1ccccc1F [Example 282]	75%
O=C(Nc1cc(-n2cnc3ccccc32)ccc1C(=O)O)c1ccccc1 [Example 415, 2-(benzamido)-4-(1H-benzimidazol-1-yl)benzoic acid hydrochloride]	97%
O=C(Nc1cc(Oc2ccccc2)ccc1C(=O)O)c1ccc2c(c1)OCCO2 [Example 83, 2-(2,3-Dihydrobenzo[1,4]dioxin-6-carboxamido)-4-phenoxybenzoic acid]	93%
O=C(Nc1cc(-c2ccccc2)ccc1C(=O)O)c1ccc(O)cc1 [Example 399, 2-(4-Hydroxybenzamido)-4-phenylbenzoic acid]	79%

Structure (SMILES)	inhibition at 30 µM
O=C(Nc1cc(-c2ccc(F)cc2F)ccc1C(=O)O)c1ccccc1 [Example 19, 2-(benzamido)-4-(2,4-difluorophenyl)benzoic acid]	94%
O=C(Nc1cc(-c2ccccc2)ccc1C(=O)O)c1ccc(F)c(F)c1 [Example 450, 2-(3,4-Difluorobenzamido)-4-phenylbenzoic acid]	98%
COc1cccc(Oc2ccc(C(=O)O)c(NC(=O)c3ccccc3)c2)c1 [Example 543, 2-(Benzamido)-4-(3-methoxyphenoxy)benzoic acid]	85%
O=C(Nc1cc(-c2ccc(O)cc2)ccc1C(=O)O)c1ccc(C(F)(F)F)cc1 [Example 176, 4-(4-Hydroxyphenyl)-2-(4-(trifluoromethyl)benzamido)benzoic acid]	98%
O=C(O)c1ccc(CCc2ccccc2)cc1NC(=O)c1ccccc1C(F)(F)F [Example 255, 4-Phenethyl-2-(2-(trifluoromethyl)benzamido)benzoic acid]	91%
O=C(O)c1ccc(Oc2ccccc2)cc1NC(=O)C1CCCCC1 [Example 85, 2-(Cyclohexanecarboxamido)-4-phenoxybenzoic acid]	60%
O=C(Nc1cc(-c2ccccc2)ccc1C(=O)O)c1ccccc1 [Example 4, 2-(benzamido)-4-phenylbenzoic acid]	80%
O=C(Nc1cc(CCCCc2ccccc2)ccc1C(=O)O)c1ccccc1 [Example 33, 2-(benzamido)-4-(4-phenylbutyl)benzoic acid]	97%
Cc1cccc(-c2ccc(C(=O)O)c(NC(=O)c3ccccc3)c2)c1C [Example 230, 2-(Benzamido)-4-(2,3-dimethylphenyl)benzoic acid]	95%
O=C(Nc1cc(-c2cccc(Cl)c2)ccc1C(=O)O)c1ccccc1 [Example 222, 2-(benzamido)-4-(3-chlorophenyl)benzoic acid]	98%
O=C(Nc1cc(-c2ccc(F)cc2F)ccc1C(=O)O)c1ccc(F)cc1 [Example 150, 4-(2,4-difluorophenyl)-2-(4-fluorobenzamido)benzoic acid]	96%
O=C(Nc1cc(-c2c(F)cccc2Cl)ccc1C(=O)O)c1ccccc1 [Example 251, 2-(benzamido)-4-(2-chloro-6-fluorophenyl)benzoic acid]	83%
O=C(Nc1cc(/C=C/c2cc(F)cc(F)c2)ccc1C(=O)O)c1ccccc1 [Example 130, 2-(Benzamido)-4-((E)-2-(3,5-difluorophenyl)vinyl)benzoic acid]	96%
O=C(Nc1cc(/C=C/c2ccccc2)ccc1C(=O)O)c1ccccc1 [Example 24, 2-(benzamido)-4-((E)-2-phenylvinyl)benzoic acid]	92%
Cc1ccc(C(=O)Nc2cc(CCc3ccccc3)ccc2C(=O)O)cc1C [Example 261, 2-(3,4-Dimethylbenzamido)-4-phenethylbenzoic acid]	94%
O=C(Nc1cc(Oc2ccccc2)ccc1C(=O)O)c1ccc(-n2cccc2)nc1 [Example 499, 4-Phenoxy-2-(6-(1H-pyrrol-1-yl)pyridine-3-carboxamido)benzoic acid]	99%
O=C(Nc1cc(-c2cccc(Cl)c2)ccc1C(=O)O)c1ccc2c(c1)OCO2 [Example 163, 2-(Benzo[1,3]dioxole-5-carboxamido)-4-(3-chlorophenyl)benzoic acid]	98%
O=C(Nc1cc(Oc2ccccc2)ccc1C(=O)O)c1ccc(Cl)c(Cl)c1 [Example 442, 2-(3,4-Dichlorobenzamido)-4-phenoxybenzoic acid]	99%
O=C(Nc1cc(Oc2cc(F)cc(F)c2)ccc1C(=O)O)c1ccccc1 [Example 539, 2-(benzamido)-4-(3,5-difluorophenoxy)benzoic acid]	97%
O=C(CCCc1ccccc1)Nc1cc(Oc2ccccc2)ccc1C(=O)O [Example 467, 4-phenoxy-2-(4-phenylbutanamido)benzoic acid]	90%
O=C(Nc1cc(-c2cc(Cl)ccc2Cl)ccc1C(=O)O)c1ccccc1 [Example 425, 2-(Benzamido)-4-(2,5-dichlorophenyl)benzoic acid]	99%
O=C(Nc1cc(Oc2ccccc2)ccc1C(=O)O)c1cccc(-c2ccccc2)c1 [Example 503, 2-(Biphenyl-3-carboxamido)-4-phenoxybenzoic acid]	99%
O=C(/C=C/c1ccc(Cl)c(Cl)c1)Nc1cc(Oc2ccccc2)ccc1C(=O)O [Example 382, 2-((E)-3-(3,4-Dichlorophenyl)acrylamido)-4-phenoxybenzoic acid]	98%

Same assay, conditions: SW1353 cells stimulated with IL-1β 10 ng/mL, MMP-13 in culture supernatant by ELISA 16 hours after stimulation

Structure (SMILES)	Inhibition rate (%) at 30 μmol/L
Cc1ccc(-c2ccc(C(=O)O)c(NC(=O)c3ccccc3)c2)cc1 [Example 240]	94%
